This passage reports IC50 results from US20260242419A1, “A CYCLIC PEPTIDE FOR TRAPPING INTERLEUKIN-1 BETA” (Merck Sharp & Dohme LLC, priority 2023, published 2026).

Each structure is given as a SMILES string. Starred links: 1 amine or outer side, 2 acyl side, 3 side chain; linkers in the order of their positions; H or OH if unused. Non-standard residues stand in square brackets, D forms with d. Residues, ends and D or L forms follow the SMILES beside them. dPro(4R-(4-pyridylmethyl)) = O=C(O)[C@H]1C[C@@H](Cc2ccncc2)CN1; dPro(3S-(4-Br-benzyl)) = O=C(O)[C@@H]1NCC[C@@H]1Cc1ccc(Br)cc1; Trp(βS-Me,4-F) = C[C@@H](c1c[nH]c2cccc(F)c12)[C@H](N)C(=O)O; Bip(4'-COOH) = N[C@@H](Cc1ccc(-c2ccc(C(=O)O)cc2)cc1)C(=O)O; Ala(1-bicyclo(1.1.1)pentyl) = N[C@@H](CC12CC(C1)C2)C(=O)O; X28 = CC(=O)N1CCN(c2ncc(C[C@H](N[*:1])C(=O)[*:2])cn2)CC1; dPro(4R-Bzl(4-F)) = O=C(O)[C@H]1C[C@@H](Cc2ccc(F)cc2)CN1; Ala(pyrimidin-5-yl) = N[C@@H](Cc1cncnc1)C(=O)O; Phe(4-COOH) = N[C@@H](Cc1ccc(C(=O)O)cc1)C(=O)O; Pro(cis-4-F) = O=C(O)[C@@H]1C[C@H](F)CN1; AEF = NCCOc1ccc(C[C@H](N)C(=O)O)cc1; 4Pal = N[C@@H](Cc1ccncc1)C(=O)O; Dab = NCC[C@H](N)C(=O)O; Dap = NC[C@H](N)C(=O)O; Aib = CC(C)(N)C(=O)O

The test has as its target T1, IL-1β (Homo sapiens, UniProt P01584).
T1 construct: purchased BioLegend 579404
The test is described as follows: IL-6 assay in MRC5 cells: inhibition of IL-1β induced IL-6 secretion (AlphaLISA). It counts as cell-based. As to conditions: inhibition of IL-1β induced IL-6 secretion in MRC5 cells; read-out: MRC5 IC50. The procedure, abridged:
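Compound was pre-incubated 1 h at ambient temperature with recombinant human IL-1β at 2λ EC80 before adding human lung fibroblast MRC5 cells (3000/well) in EMEM with 0.025% BSA. After overnight culture at 37 °C, 5% CO2, secreted IL-6 in conditioned medium was measured by AlphaLISA; IC50 from 4-parameter logistic fits.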
On the technique in general: In Alpha technology, singlet oxygen from a donor bead excites a nearby acceptor bead.

T1 sequence (P01584 117-269): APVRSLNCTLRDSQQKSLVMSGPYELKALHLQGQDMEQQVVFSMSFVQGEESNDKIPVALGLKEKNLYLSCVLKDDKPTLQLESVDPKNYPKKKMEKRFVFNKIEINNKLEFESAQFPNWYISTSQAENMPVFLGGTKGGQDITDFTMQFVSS

Usually IC50 stands for the concentration at which inhibition is half-maximal. Consider `CC(=O)N1CCN(c2ncc(C[C@@H]3NC(=O)[C@H]4C[C@@H](Cc5ccc(F)cc5)CN4C(=O)CNC(=O)[C@H](CCN)NC(=O)[C@H](CCC(N)=O)NC(=O)[C@H](Cc4cncnc4)NC(=O)C(C)(C)NC(=O)[C@H](Cc4c[nH]c5ccccc45)NC(=O)[C@H](CCC(=O)O)NC(=O)C(C)(C)NC(=O)[C@H]([C@@H](C)c4c[nH]c5cccc(F)c45)NC(=O)[C@@H]4C[C@H](F)CN4C(=O)CNC(=O)[C@H](Cc4ccc(C(=O)O)cc4)NC(=O)[C@H](Cc4ccncc4)NC3=O)cn2)CC1` [Example 40] (cyclo([X28][4Pal][Phe(4-COOH)]G[Pro(cis-4-F)][Trp(βS-Me,4-F)][Aib]EW[Aib][Ala(pyrimidin-5-yl)]Q[Dab]G[dPro(4R-Bzl(4-F))])), for which the concentration for half-maximal inhibition (IC50) was 0.048 nM.
The figure for `C[C@@H]1NC(=O)C(C)(C)NC(=O)[C@H]([C@@H](C)c2c[nH]c3cccc(F)c23)NC(=O)[C@@H]2C[C@H](F)CN2C(=O)CNC(=O)[C@H](Cc2ccc(C(=O)O)cc2)NC(=O)[C@H](Cc2ccncc2)NC(=O)[C@H](Cc2ccc(-c3ccc(C(=O)O)cc3)cc2)NC(=O)[C@H]2C[C@@H](Cc3ccncc3)CN2C(=O)CNC(=O)[C@H](CCN)NC(=O)[C@H](CCC(N)=O)NC(=O)[C@H](Cc2cncnc2)NC(=O)C(C)(C)NC(=O)[C@H](Cc2c[nH]c3ccccc23)NC1=O` [Example 41] (cyclo([4Pal][Phe(4-COOH)]G[Pro(cis-4-F)][Trp(βS-Me,4-F)][Aib]AW[Aib][Ala(pyrimidin-5-yl)]Q[Dab]G[dPro(4R-(4-pyridylmethyl))][Bip(4'-COOH)])) is 0.029 nM; for `C[C@@H](c1c[nH]c2cccc(F)c12)[C@@H]1NC(=O)[C@@H]2C[C@H](F)CN2C(=O)CNC(=O)[C@H](Cc2ccc(C(=O)O)cc2)NC(=O)[C@H](Cc2ccncc2)NC(=O)[C@H](Cc2ccc(-c3ccc(C(=O)O)cc3)cc2)NC(=O)[C@H]2C[C@@H](Cc3ccncc3)CN2C(=O)CNC(=O)[C@H](CCN)NC(=O)[C@H](CCC(N)=O)NC(=O)[C@H](Cc2cncnc2)NC(=O)C(C)(C)NC(=O)[C@H](Cc2c[nH]c3ccccc23)NC(=O)[C@H](CO)NC(=O)C(C)(C)NC1=O` [Example 42] (cyclo([4Pal][Phe(4-COOH)]G[Pro(cis-4-F)][Trp(βS-Me,4-F)][Aib]SW[Aib][Ala(pyrimidin-5-yl)]Q[Dab]G[dPro(4R-(4-pyridylmethyl))][Bip(4'-COOH)])) it is 0.021 nM.
The figure for `C[C@@H](c1c[nH]c2cccc(F)c12)[C@@H]1NC(=O)[C@@H]2C[C@H](F)CN2C(=O)CNC(=O)[C@H](Cc2ccc(C(=O)O)cc2)NC(=O)[C@H](CC23CC(C2)C3)NC(=O)[C@H](Cc2ccc(-c3ccc(C(=O)O)cc3)cc2)NC(=O)[C@H]2C[C@@H](Cc3ccncc3)CN2C(=O)CNC(=O)[C@H](CCN)NC(=O)[C@H](CCC(N)=O)NC(=O)[C@H](Cc2cncnc2)NC(=O)C(C)(C)NC(=O)[C@H](Cc2c[nH]c3ccccc23)NC(=O)[C@H](CCC(=O)O)NC(=O)C(C)(C)NC1=O` [Example 43] (cyclo([Bip(4'-COOH)][Ala(1-bicyclo(1.1.1)pentyl)][Phe(4-COOH)]G[Pro(cis-4-F)][Trp(βS-Me,4-F)][Aib]EW[Aib][Ala(pyrimidin-5-yl)]Q[Dab]G[dPro(4R-(4-pyridylmethyl))])) is 0.026 nM; for `C[C@@H](c1c[nH]c2cccc(F)c12)[C@@H]1NC(=O)[C@@H]2C[C@H](F)CN2C(=O)CNC(=O)[C@H](Cc2ccc(C(=O)O)cc2)NC(=O)[C@H](CC23CC(C2)C3)NC(=O)[C@H](Cc2ccc(-c3ccc(C(=O)O)cc3)cc2)NC(=O)[C@H]2C[C@@H](Cc3ccncc3)CN2C(=O)CNC(=O)[C@H](CCN)NC(=O)[C@H](CCC(N)=O)NC(=O)[C@H](Cc2cncnc2)NC(=O)C(C)(C)NC(=O)[C@H](Cc2c[nH]c3ccccc23)NC(=O)[C@H](CO)NC(=O)C(C)(C)NC1=O` [Example 44] (cyclo([Aib]SW[Aib][Ala(pyrimidin-5-yl)]Q[Dab]G[dPro(4R-(4-pyridylmethyl))][Bip(4'-COOH)][Ala(1-bicyclo(1.1.1)pentyl)][Phe(4-COOH)]G[Pro(cis-4-F)][Trp(βS-Me,4-F)])) it is 0.021 nM.
The figure for `C[C@@H](c1c[nH]c2cccc(F)c12)[C@@H]1NC(=O)[C@@H]2C[C@H](F)CN2C(=O)CNC(=O)[C@H](Cc2ccc(C(=O)O)cc2)NC(=O)[C@H](CC23CC(C2)C3)NC(=O)[C@H](Cc2ccc(-c3ccc(C(=O)O)cc3)cc2)NC(=O)[C@H]2C[C@@H](Cc3ccncc3)CN2C(=O)CNC(=O)[C@H](CCN)NC(=O)[C@H](CCC(N)=O)NC(=O)[C@H](Cc2ccncc2)NC(=O)C(C)(C)NC(=O)[C@H](Cc2c[nH]c3ccccc23)NC(=O)[C@H](CCC(=O)O)NC(=O)C(C)(C)NC1=O` [Example 45] (cyclo([Bip(4'-COOH)][Ala(1-bicyclo(1.1.1)pentyl)][Phe(4-COOH)]G[Pro(cis-4-F)][Trp(βS-Me,4-F)][Aib]EW[Aib][4Pal]Q[Dab]G[dPro(4R-(4-pyridylmethyl))])) is 0.027 nM; for `C[C@@H](c1c[nH]c2cccc(F)c12)[C@@H]1NC(=O)[C@@H]2C[C@H](F)CN2C(=O)CNC(=O)[C@H](Cc2ccc(C(=O)O)cc2)NC(=O)[C@H](CC23CC(C2)C3)NC(=O)[C@H](Cc2ccc(-c3ccc(C(=O)O)cc3)cc2)NC(=O)[C@H]2C[C@@H](Cc3ccncc3)CN2C(=O)CNC(=O)[C@H](CN)NC(=O)[C@H](CCC(N)=O)NC(=O)[C@H](Cc2cncnc2)NC(=O)C(C)(C)NC(=O)[C@H](Cc2c[nH]c3ccccc23)NC(=O)[C@H](CCC(=O)O)NC(=O)C(C)(C)NC1=O` [Example 46] (cyclo([Bip(4'-COOH)][Ala(1-bicyclo(1.1.1)pentyl)][Phe(4-COOH)]G[Pro(cis-4-F)][Trp(βS-Me,4-F)][Aib]EW[Aib][Ala(pyrimidin-5-yl)]Q[Dap]G[dPro(4R-(4-pyridylmethyl))])) it is 0.034 nM; for `C[C@@H](c1c[nH]c2cccc(F)c12)[C@@H]1NC(=O)[C@@H]2C[C@H](F)CN2C(=O)CNC(=O)[C@H](Cc2ccc(C(=O)O)cc2)NC(=O)[C@H](Cc2ccncc2)NC(=O)[C@H](Cc2ccc(-c3ccc(C(=O)O)cc3)cc2)NC(=O)[C@H]2C[C@@H](Cc3ccncc3)CN2C(=O)CNC(=O)[C@H](CN)NC(=O)[C@H](CCC(N)=O)NC(=O)[C@H](Cc2ccncc2)NC(=O)C(C)(C)NC(=O)[C@H](Cc2c[nH]c3ccccc23)NC(=O)[C@H](CCC(=O)O)NC(=O)C(C)(C)NC1=O` [Example 47] (cyclo([Bip(4'-COOH)][4Pal][Phe(4-COOH)]G[Pro(cis-4-F)][Trp(βS-Me,4-F)][Aib]EW[Aib][4Pal]Q[Dap]G[dPro(4R-(4-pyridylmethyl))])) it is 0.029 nM.
For `C[C@@H](c1c[nH]c2cccc(F)c12)[C@@H]1NC(=O)[C@@H]2C[C@H](F)CN2C(=O)CNC(=O)[C@H](Cc2ccc(C(=O)O)cc2)NC(=O)[C@H](CC23CC(C2)C3)NC(=O)[C@H](Cc2ccc(-c3ccc(C(=O)O)cc3)cc2)NC(=O)[C@H]2C[C@@H](Cc3ccncc3)CN2C(=O)CNC(=O)[C@H](CN)NC(=O)[C@H](CCC(N)=O)NC(=O)[C@H](Cc2ccncc2)NC(=O)C(C)(C)NC(=O)[C@H](Cc2c[nH]c3ccccc23)NC(=O)[C@H](CCC(=O)O)NC(=O)C(C)(C)NC1=O` [Example 48] (cyclo([4Pal]Q[Dap]G[dPro(4R-(4-pyridylmethyl))][Bip(4'-COOH)][Ala(1-bicyclo(1.1.1)pentyl)][Phe(4-COOH)]G[Pro(cis-4-F)][Trp(βS-Me,4-F)][Aib]EW[Aib])), the IC50 turned out to be 0.027 nM.
Take `CC(=O)NCCOc1ccc(C[C@@H]2NC(=O)[C@H]3C[C@@H](Cc4ccncc4)CN3C(=O)CNC(=O)[C@H](CCN)NC(=O)[C@H](CCC(N)=O)NC(=O)[C@H](Cc3cncnc3)NC(=O)C(C)(C)NC(=O)[C@H](Cc3c[nH]c4ccccc34)NC(=O)[C@H](CCC(=O)O)NC(=O)C(C)(C)NC(=O)[C@H]([C@@H](C)c3c[nH]c4cccc(F)c34)NC(=O)[C@@H]3C[C@H](F)CN3C(=O)CNC(=O)[C@H](Cc3ccc(C(=O)O)cc3)NC(=O)[C@H](Cc3ccncc3)NC2=O)cc1` [Example 49] (cyclo([AEF](Ac)[4Pal][Phe(4-COOH)]G[Pro(cis-4-F)][Trp(βS-Me,4-F)][Aib]EW[Aib][Ala(pyrimidin-5-yl)]Q[Dab]G[dPro(4R-(4-pyridylmethyl))])): the IC50 came out at 0.047 nM.
Regarding `CC(=O)NCCOc1ccc(C[C@@H]2NC(=O)[C@H]3C[C@@H](Cc4ccncc4)CN3C(=O)CNC(=O)[C@H](CCN)NC(=O)[C@H](CCC(N)=O)NC(=O)[C@H](Cc3cncnc3)NC(=O)C(C)(C)NC(=O)[C@H](Cc3c[nH]c4ccccc34)NC(=O)[C@H](CCC(=O)O)NC(=O)C(C)(C)NC(=O)[C@H]([C@@H](C)c3c[nH]c4cccc(F)c34)NC(=O)[C@@H]3C[C@H](F)CN3C(=O)CNC(=O)[C@H](Cc3ccc(C(=O)O)cc3)NC(=O)[C@H](CC34CC(C3)C4)NC2=O)cc1` [Example 50] (cyclo([AEF](Ac)[Ala(1-bicyclo(1.1.1)pentyl)][Phe(4-COOH)]G[Pro(cis-4-F)][Trp(βS-Me,4-F)][Aib]EW[Aib][Ala(pyrimidin-5-yl)]Q[Dab]G[dPro(4R-(4-pyridylmethyl))])), the IC50 came out at 0.044 nM.
The figure for `C[C@@H](c1c[nH]c2cccc(F)c12)[C@@H]1NC(=O)[C@@H]2C[C@H](F)CN2C(=O)CNC(=O)[C@H](Cc2ccc(C(=O)O)cc2)NC(=O)[C@H](Cc2ccncc2)NC(=O)[C@H](Cc2ccc(-c3ccc(C(=O)O)cc3)cc2)NC(=O)[C@H]2[C@@H](Cc3ccc(Br)cc3)CCN2C(=O)CNC(=O)[C@H](CCN)NC(=O)[C@H](CCC(N)=O)NC(=O)[C@H](Cc2cncnc2)NC(=O)C(C)(C)NC(=O)[C@H](Cc2c[nH]c3ccccc23)NC(=O)[C@H](CCC(=O)O)NC(=O)C(C)(C)NC1=O` [Example 51] (cyclo([4Pal][Phe(4-COOH)]G[Pro(cis-4-F)][Trp(βS-Me,4-F)][Aib]EW[Aib][Ala(pyrimidin-5-yl)]Q[Dab]G[dPro(3S-(4-Br-benzyl))][Bip(4'-COOH)])) is 0.014 nM.
